IC50 data for 27 compounds are collected here from US20110098283A1, “3-CINNOLINECARBOXAMIDE DERIVATIVES AND THEIR USE FOR TREATING CANCER” (ASTRAZENECA AB, priority 2007, published 2011).

The first test addresses T1, CSF-1R (His-tagged kinase domain, amino acids 568-912) (Homo sapiens, UniProt P07333).
T1 construct: The His-tagged kinase domain of CSF-1R (i.e., amino acids 568-912, GeneBank ID NM_005211); His; made in house; host or cells: baculovirus infected SF+Express insect cells
T1 sequence (P07333 568-912): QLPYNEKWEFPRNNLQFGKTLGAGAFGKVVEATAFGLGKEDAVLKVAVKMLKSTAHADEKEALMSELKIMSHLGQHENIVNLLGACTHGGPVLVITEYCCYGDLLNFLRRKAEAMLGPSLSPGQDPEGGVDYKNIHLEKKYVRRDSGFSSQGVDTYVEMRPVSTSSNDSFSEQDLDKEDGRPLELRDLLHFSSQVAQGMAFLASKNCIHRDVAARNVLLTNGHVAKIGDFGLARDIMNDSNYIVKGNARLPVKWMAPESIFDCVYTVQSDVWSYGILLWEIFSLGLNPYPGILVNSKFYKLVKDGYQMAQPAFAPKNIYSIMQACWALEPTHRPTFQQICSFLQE
Description: Assay 2: CSF1R in-vitro AlphaScreen Assay. Type of test: biochemical. To be noted: phosphorylation of pEY substrate; 0.46 nM CSF-1R, 12 mM ATP in mix. The procedure: Assay 2: CSF1R in-vitro AlphaScreen Assay
Activity of purified CSF-1R was determined in-vitro using an Amplified Luminescent Proximity Homogeneous Assay (ALPHA) (Perkin Elmer, Mass.), which measures phosphorylation of CSF-1R substrate, biotinylated poly-glutamine-tyrosine peptide (pEY-HTRF CisBio 61GT0BLD), as described below. The His-tagged kinase domain of CSF-1R (i e, amino acids 568-912, GeneBank ID NM_005211) was purified from baculovirus infected SF+Express insect cells (1.4×10^6 cells/ml), French pressed and chromatographed through subsequent QIAgen Ni-NTA, Superflow Mono Q HR 10/10, and Superdex 200 SEC columns.
The phosphorylation of the CSF-1R substrate in the presence and absence of the compound of interest was determined. Briefly, 5 ul of Enzyme/Substrate/adenosine triphosphate (ATP) mix consisting of 0.46 nM of purified CSF-1R, 12 nM pEY substrate, and 12 mM ATP in 1.2× buffer was preincubated with 2 ul of compound for 20 minutes at 25° C. Reactions were initiated with 5 ul of Metal mix consisting of 24 mM MgCl2 in 1.2× buffer and incubated at 25° C. for 90 minutes and reactions were stopped by addition of 5 ul of Detection mix consisting of 20 mM HEPES, 102 mM ethylenediamine tetraacetic acid, 1.65 mg/ml BSA, 136 mM NaCl, 40 ug/ml Streptavidin donor beads (Perkin Elmer, Mass., Catalog #6760002), and 40 ug/ml phosphotyrosine-specific antibody coated acceptor beads (Perkin Elmer, Mass., Catalog #6760620). Plates were incubated at 25° C. for 18 hours in the dark. Phosphorylated substrate was detected by an EnVision plate reader (Perkin Elmer) 680 nm excitation, 520-620 nm emission. Data was graphed and IC50s calculated using Excel Fit (Microsoft).
A word on the IC50: it is the concentration that gives 50% inhibition. The low end stands for inhibition by little substance, the high end for a need for much substance. `COc1cc2nnc(C(N)=O)c(Nc3ccc(C)cc3F)c2cc1C1=CCN(C(C)C)CC1` [Example 29, 4-[(2-Fluoro-4-methylphenyl)amino]-6-(1-isopropyl-1,2,3,6-tetrahydropyridin-4-yl)-7-methoxycinnoline-3-carboxamide] registered an IC50 of 7 nM.

The compound `COc1cc2nnc(C(N)=O)c(Nc3ccc(C)cc3F)c2cc1N1CCn2cnnc2C1` [Example 31, 6-(5,6-Dihydro[1,2,4]triazolo[4,3-a]pyrazin-7(8H)-yl)-4-[(2-fluoro-4-methylphenyl)amino]-7-methoxycinnoline-3-carboxamide] registered an IC50 of 13 nM.

The compound `COc1cc2nnc(C(N)=O)c(Nc3ccc(C)cc3F)c2cc1N1CCN2C(=NNC2O)C1` (stereo not drawn) [Example 32, 4-[(2-Fluoro-4-methylphenyl)amino]-6-(3-hydroxy-2,5,6,8-tetrahydro[1,2,4]triazolo[4,3-a]pyrazin-7(3H)-yl)-7-methoxycinnoline-3-carboxamide] showed an IC50 of 8 nM.

In another test the target is T1, CSF-1R (His-tagged kinase domain, amino acids 568-912). Description: Assay 1: CSF-1R in vitro AlphaScreen Assay. To be noted: phosphorylation of pEY substrate; 0.57 nM CSF-1R, 90 μM ATP. The test is classed as biochemical. The procedure:
Assay 1: CSF-1R in vitro AlphaScreen Assay
Activity of purified CSF-1R was determined in vitro using an Amplified Luminescent Proximity Homogeneous Assay (ALPHA) (Perkin Elmer), which measures phosphorylation of the CSF-1R substrate, biotinylated poly-glutamine-tyrosine peptide (pEY-HTRF CisBio 61GT0BLD), as described below.
The phosphorylation of the CSF-1R substrate in the presence and absence of the compound of interest was determined. […] Plates were incubated at 25° C. for 18 hours in the dark. Phosphorylated substrate was detected by an EnVision plate reader (Perkin Elmer) 680 nm excitation, 520-620 nm emission. Data was graphed and IC50s calculated using Excel Fit (Microsoft).
Background: Alpha assays give light when donor and acceptor beads are brought close together.
Consider `COc1cc2nnc(C(N)=O)c(Nc3ccc(F)cc3F)c2cc1OC` [Example 1, 4-[(2,4-Difluorophenyl)amino]-6,7-dimethoxycinnoline-3-carboxamide], for which the IC50 is under 3 nM.

As for `COc1cc2nnc(C(N)=O)c(Nc3ccc(C)cc3F)c2cc1OC` [Example 2, 4-[(2-Fluoro-4-methylphenyl)amino]-6,7-dimethoxycinnoline-3-carboxamide], the IC50 was 8 nM.

Take `COc1cc2nnc(C(N)=O)c(Nc3cc(C)ccc3F)c2cc1OC` [Example 4, 4-[(2-Fluoro-5-methylphenyl)amino]-6,7-dimethoxycinnoline-3-carboxamide]: the IC50 stood at 5 nM.

With `COc1cc2nnc(C(N)=O)c(Nc3cccc(Cl)c3Cl)c2cc1OC` [Example 5, 4-[(2,3-Dichlorophenyl)amino]-6,7-dimethoxycinnoline-3-carboxamide], the IC50 was under 3 nM.

`CCOc1cc2nnc(C(N)=O)c(Nc3cc(C)ccc3F)c2cc1N1CCN(C)CC1` [Example 6, 7-Ethoxy-4-[(2-fluoro-5-methylphenyl)amino]-6-(4-methylpiperazin-1-yl)cinnoline-3-carboxamide]: the IC50 is under 3 nM.

As to `CCOc1cc2nnc(C(N)=O)c(Nc3cccc(Cl)c3Cl)c2cc1N1CCN(C)CC1` [Example 8, 4-[(2,3-Dichlorophenyl)amino]-7-ethoxy-6-(4-methylpiperazin-1-yl)cinnoline-3-carboxamide], the IC50 is 3 nM. In other words, the single-digit nanomolar range.

`CCOc1cc2nnc(C(N)=O)c(Nc3cccc(Cl)c3F)c2cc1N1CCN(C)CC1` [Example 9, 4-[(3-Chloro-2-fluoro-phenyl)amino]-7-ethoxy-6-(4-methylpiperazin-1-yl)cinnoline-3-carboxamide] yielded an IC50 of under 15 nM.

`CCOc1cc2nnc(C(N)=O)c(Nc3ccc(C)cc3F)c2cc1N1CCN(C)CC1` [Example 10, 7-Ethoxy-4-[(2-fluoro-4-methyl-phenyl)amino]-6-(4-methylpiperazin-1-yl)cinnoline-3-carboxamide] registered an IC50 of under 3 nM.

For `CCOc1cc2nnc(C(N)=O)c(Nc3ccc(F)cc3F)c2cc1N1CCN(C(C)C)CC1` [Example 11, 4-[(2,4-Difluorophenyl)amino]-7-ethoxy-6-(4-propan-2-ylpiperazin-1-yl)cinnoline-3-carboxamide], the IC50 came to 8 nM.

Take `CCOc1cc2nnc(C(N)=O)c(Nc3ccc(F)cc3F)c2cc1N1CCN(CC)CC1` [Example 12, 4-[(2,4-Difluorophenyl)amino]-7-ethoxy-6-(4-ethylpiperazin-1-yl)cinnoline-3-carboxamide]: the IC50 was determined as 5 nM. Against the preceding compound, the IC50 is about 1.6-fold lower.

With `COc1cc2nnc(C(N)=O)c(Nc3cccc(Cl)c3F)c2cc1N1CCN(C)CC1` [Example 14, 4-[(3-Chloro-2-fluorophenyl)amino]-7-methoxy-6-(4-methylpiperazin-1-yl)cinnoline-3-carboxamide], the IC50 was under 3 nM.

In the case of `COc1cc2nnc(C(N)=O)c(Nc3ccc(C)cc3F)c2cc1N1CCN(C(C)(C)C)CC1` [Example 16, 6-(4-tert-Butylpiperazin-1-yl)-4-[(2-fluoro-4-methylphenyl)amino]-7-methoxycinnoline-3-carboxamide], the IC50 is 9 nM.

Turning to `COCCOc1cc2nnc(C(N)=O)c(Nc3ccc(F)cc3F)c2cc1N1CCN(C)CC1` [Example 17, 4-[(2,4-Difluorophenyl)amino]-7-(2-methoxyethoxy)-6-(4-methylpiperazin-1-yl)cinnoline-3-carboxamide], the IC50 was under 3 nM.

In turn, `COCCOc1cc2nnc(C(N)=O)c(Nc3ccc(C)cc3F)c2cc1N1CCN(C)CC1` [Example 18, 4-[(2-Fluoro-4-methylphenyl)amino]-7-(2-methoxyethoxy)-6-(4-methylpiperazin-1-yl)cinnoline-3-carboxamide] returned an IC50 of under 3 nM.

As for `COCCOc1cc2nnc(C(N)=O)c(Nc3cc(C)ccc3F)c2cc1N1CCN(C)CC1` [Example 19, 4-[(2-Fluoro-5-methylphenyl)amino]-7-(2-methoxyethoxy)-6-(4-methylpiperazin-1-yl)cinnoline-3-carboxamide], the IC50 is under 3 nM.

Turning to `COc1cc2nnc(C(N)=O)c(Nc3ccc(F)cc3F)c2cc1N1CCN(C)CC1` [Example 20, 4-[(2,4-Difluorophenyl)amino]-7-methoxy-6-(4-methylpiperazin-1-yl)cinnoline-3-carboxamide], the IC50 was under 3 nM.

Consider `COCCOc1cc2nnc(C(N)=O)c(Nc3cccc(Cl)c3F)c2cc1N1CCN(C)CC1` [Example 21, 4-[(3-Chloro-2-fluorophenyl)amino]-7-(2-methoxyethoxy)-6-(4-methylpiperazin-1-yl)cinnoline-3-carboxamide], for which the IC50 was under 3 nM.

`COc1cc2nnc(C(N)=O)c(Nc3cc(C)ccc3F)c2cc1N1CCN(C)CC1` [Example 22, 4-[(2-Fluoro-5-methylphenyl)amino]-7-methoxy-6-(4-methylpiperazin-1-yl)cinnoline-3-carboxamide] returned an IC50 of under 3 nM.

In the case of `COc1cc2nnc(C(N)=O)c(Nc3cc(C)ccc3F)c2cc1N1CCN(C(C)C)CC1` [Example 23, 4-[(2-Fluoro-5-methylphenyl)amino]-6-(4-isopropylpiperazin-1-yl)-7-methoxycinnoline-3-carboxamide], the IC50 is under 5 nM.

In turn, `COCCOc1cc2nnc(C(N)=O)c(Nc3ccc(F)cc3F)c2cc1N1CCN(C(C)C)CC1` [Example 24, 4-[(2,4-Difluorophenyl)amino]-6-(4-isopropylpiperazin-1-yl)-7-(2-methoxyethoxy)cinnoline-3-carboxamide] yielded an IC50 of under 3 nM.

`CCOc1cc2nnc(C(N)=O)c(Nc3ccc(C)cc3F)c2cc1N1CCN(C(C)C)CC1` [Example 25, 7-Ethoxy-4-[(2-fluoro-4-methylphenyl)amino]-6-(4-isopropylpiperazin-1-yl)cinnoline-3-carboxamide] yielded an IC50 of under 3 nM.

Consider `COc1cc2nnc(C(N)=O)c(Nc3ccc(C)cc3F)c2cc1-c1ccncc1` [Example 26, 4-[(2-Fluoro-4-methylphenyl)amino]-7-methoxy-6-pyridin-4-ylcinnoline-3-carboxamide], for which the IC50 turned out to be 51 nM.

The compound `CCOc1cc2nnc(C(N)=O)c(Nc3ccc(C)cc3F)c2cc1N1CCCN(C)CC1` [Example 27, 7-Ethoxy-4-[(2-fluoro-4-methylphenyl)amino]-6-(4-methyl-1,4-diazepan-1-yl)cinnoline-3-carboxamide] registered an IC50 of under 3 nM.

In turn, `CCOc1cc2nnc(C(N)=O)c(Nc3ccc(C)cc3F)c2cc1N1C[C@@H](C)N[C@@H](C)C1` [Example 28, 6-[(3R,5S)-3,5-Dimethylpiperazin-1-yl]-7-ethoxy-4-[(2-fluoro-4-methylphenyl)amino]cinnoline-3-carboxamide] returned an IC50 of under 3 nM.
